Assay results from patent publication US8440610B2, “Mapkap kinase-2 as a specific target for blocking proliferation of P53-defective cells” (Massachusetts Institute of Technology, priority 2004, dated 2013).

Columns and labels:
[1] = system: H-Ras-V12 transformed p53−/− MEFs; assay: Tumor formation after implantation of chemotherapy-treated cells in nude mice; format: in vivo; conditions: fifteen days; for tumor formation: MAPKAP kinase-2 siRNA-transfected cells pre-treated with 1 μM cisplatin or 0.1 μM doxorubicin before implantation; for size and weight of tumors relative to tumors formed by untreated cells: control siRNA-transfected cells pre-treated with 1 μM cisplatin or 0.1 μM doxorubicin before implantation
Experimental: To establish whether the absence of MAPKAP kinase-2 could also enhance the anti-tumorigenic effect of cisplatin or doxorubicin in vivo, we introduced control or MAPKAP kinase-2 siRNAs into H-Ras-V12 transformed p53^−/− MEFs, treated them with either vehicle alone, 1 μM cisplatin or 0.1 μM doxorubicin, and then implanted them into nude mice. Each animal received two injections of MAPKAP kinase-2 siRNA-transfected cells (left flank), and two injections of control siRNA transfected cells (right flank), and tumor formation was assessed at fifteen days. […] In general, the size of the tumors resulting from injection of MAPKAP kinase-2 depleted cells was larger than that from control siRNA-transfected cells (FIGS. 17A, 17B, and 17D).
Murine tumor models. H-Ras-V 12-transformed p53^−/− MEFs were used for in vivo tumor formation assays. Cells were transfected with siRNA oligonucleotides against GFP or murine MAPKAP kinase-2 for forty-eight hours, then mock treated or incubated with 0.1 μM doxorubicin or 1 μM cisplatin for eight hours, washed three times in growth media, three times in PBS, trypsinized, and resuspended at a concentration of 10^7 cells/ml in PBS. 10^6 cells were subcutaneously injected into the flanks of nude mice (Ncr nu/nu, Taconic).

[2] = system: U2OS cells; assay: FACS cell cycle analysis (PI, phospho-histone H3) in U2OS cells; format: cell-based, human; conditions: MAPKAP kinase-2 depleted U2OS cells; 10 μM drug, nocodazole added three hours later, thirty hours
Experimental: Asynchronous MAPKAP kinase-2 or luciferase shRNA knockdown cells were mock treated or exposed to doxorubicin for thirty hours, and cell cycle progression was monitored by FACS. In one set of experiments, the spindle poison nocodazole was added to the media three hours after addition of doxorubicin, to cause any cells progressing through the cell cycle to arrest in mitosis. DNA content was monitored by PI staining; phospho-histone-H3 staining was used as an indicator of mitotic entry. As shown in the left panels of FIG. 14A, treatment of control luciferase shRNA knockdown cells with doxorubicin led to the accumulation of cells with 4N DNA content, and a lack of phospho-histone-H3 staining in either the absence or presence of nocodazole. The cells expressing the luciferase shRNAs behaved identically to the untransfected doxorubicin-treated control U2OS cell population (FIG. 24B), with the prominent 4N DNA component and the absence of phospho-histone-H3 staining indicative of an intact G2/M checkpoint.
In contrast to the G2/M checkpoint response observed in doxorubicin-treated cells, treatment with the DNA intra-strand cross-linker cisplatin caused U2OS cells to predominantly accumulate in the G1 and S phases of the cell cycle over the subsequent thirty hours (FIG. 24C). RNA interference was used to investigate the role of MAPKAP kinase-2 in this process. […] Strikingly, when nocodazole was added three hours following cisplatin addition, the MAPKAP kinase-2 depleted cells accumulated in a 4N DNA containing peak with ˜42% of the cells staining strongly for phospho-histone H3. Identical results were obtained in cells treated with a second unrelated siRNA sequence against MAPKAP kinase-2.
FACS analysis. UV irradiation was performed at 254 nm (UV-C) using a Stratalinker 2400 (Stratagene). U2OS cells were fixed in 70% ethanol overnight at −20° C., permeabilized with PBS containing 0.2% Triton X-100 for twenty minutes at 4° C., blocked with 2% FBS in PBS, and incubated with 1 μg of anti-phospho-histone H3 per 10^6 cells for sixty minutes on ice. […]

[3] = system: p53−/− MEFs; assay: FACS cell cycle analysis (PI, phospho-histone H3) in p53−/− MEFs; format: cell-based, mouse; conditions: MK2 depleted p53−/− MEFs; 10 μM drug, nocodazole added three hours later, thirty hours
Experimental: FACS analysis. UV irradiation was performed at 254 nm (UV-C) using a Stratalinker 2400 (Stratagene). U2OS cells were fixed in 70% ethanol overnight at −20° C., permeabilized with PBS containing 0.2% Triton X-100 for twenty minutes at 4° C., blocked with 2% FBS in PBS, and incubated with 1 μg of anti-phospho-histone H3 per 10^6 cells for sixty minutes on ice. Following washing, cells were incubated with FITC-conjugated goat anti-rabbit antibody (diluted 1:500) for thirty minutes on ice, washed, and resuspended in PBS containing 50 μg/ml PI for twenty minutes immediately prior to FACS analysis. Analysis was performed using a Becton Dickinson FACS machine with CellQuest software.
To investigate the molecular mechanisms involved in MK2 dependent responses to DNA lesions, we examined cell cycle profiles of control and MK2 depleted p53^−/− MEFs. Asynchronous MK2- or control knock-down p53^−/− MEFs were mock treated or exposed to doxorubicin for thirty hour, and cell cycle distribution monitored by FACS. In one set of experiments the spindle poison nocodazole was added to the media three hours after addition of doxorubicin, to cause any cells progressing through the cell cycle to arrest in mitosis. DNA content was monitored by PI staining; phospho-histone-H3 staining was used as an indicator of mitotic entry. […]

Structure (SMILES): COc1cccc2c1C(=O)c1c(O)c3c(c(O)c1C2=O)C[C@@](O)(C(=O)CO)C[C@@H]3O[C@H]1C[C@H](N)[C@H](O)[C@H](C)O1 [doxorubicin]
- tumor formation [1]: completely eliminated the formation of tumors
- size and weight of tumors relative to tumors formed by untreated cells [1]: ~35%
- cells staining positively for phospho-histone H3 [2]: 36.3%
- cells staining positively for phospho-histone H3 [3]: 28.5%

Structure (SMILES): N.N.[Cl][Pt][Cl] [cisplatin]
- tumor formation [1]: completely eliminated the formation of tumors
- size and weight of tumors relative to tumors formed by untreated cells [1]: ~35%
- cells staining positively for phospho-histone H3 [2]: ~42%
- cells staining positively for phospho-histone H3 [3]: ~25%
